“And” between values parts separate entries of the source, which are not always exact repeats. Equal entries are not always repeated. Numbers after ± are expanded uncertainties.
Tests used:
[1] = refractive index (Na D-line) (dimensionless); details: 101.33 kPa, Liquid, Standard Abbe refractometry
[2] = 101 kPa, Liquid; for viscosity: Capillary tube (Ostwald / Ubbelohde) method; for mass density: Vibrating tube method
[3] = refractive index (Na D-line) (dimensionless); xn = mol fraction of the nth substance listed; details: 101 kPa, Liquid, Standard Abbe refractometry
[4] = xn = mol fraction of the nth substance listed; details: 101 kPa, Liquid; for viscosity: Capillary tube (Ostwald / Ubbelohde) method; for mass density: Vibrating tube method

Row | SMILES | refractive index ([1]; 293.15 K) | refractive index ([1]; 298.15 K) | refractive index ([1]; 303.15 K) | refractive index ([1]; 308.15 K) | viscosity ([2]; 293.15 K) | mass density ([2]; 293.15 K) | viscosity ([2]; 298.15 K) | mass density ([2]; 298.15 K) | viscosity ([2]; 303.15 K) | mass density ([2]; 303.15 K) | viscosity ([2]; 308.15 K) | mass density ([2]; 308.15 K) | refractive index ([3]; 293.15 K, x1 = 1) | refractive index ([3]; 298.15 K, x1 = 1) | refractive index ([3]; 303.15 K, x1 = 1) | refractive index ([3]; 308.15 K, x1 = 1) | viscosity ([4]; 293.15 K, x1 = 1) | mass density ([4]; 293.15 K, x1 = 1) | viscosity ([4]; 298.15 K, x1 = 1) | mass density ([4]; 298.15 K, x1 = 1) | other results
1 | CC#N [acetonitrile] | 1.3436 ± 0.0021 | 1.3411 ± 0.0021 | 1.339 ± 0.0021 | 1.3371 ± 0.0021 | 0.3542 ± 0.004 mPa·s | 782.04 ± 0.31 kg/m3 | 0.3369 ± 0.0038 mPa·s and 0.336 ± 0.004 mPa·s | 776.64 ± 0.31 kg/m3 | 0.3254 ± 0.0037 mPa·s and 0.325 ± 0.004 mPa·s | 771.21 ± 0.31 kg/m3 | 0.3082 ± 0.0036 mPa·s and 0.308 ± 0.004 mPa·s | 765.75 ± 0.31 kg/m3 |  |  |  |  |  |  |  |  | 
2 | CCC(C)O (stereo unspecified) [butan-2-ol] | 1.3966 ± 0.0021 | 1.3946 ± 0.0021 | 1.3924 ± 0.0021 | 1.3905 ± 0.0021 | 3.912 ± 0.046 mPa·s | 806.57 ± 0.31 kg/m3 | 3.132 ± 0.039 mPa·s | 802.56 ± 0.31 kg/m3 | 2.534 ± 0.029 mPa·s | 798.26 ± 0.31 kg/m3 | 2.172 ± 0.024 mPa·s | 793.96 ± 0.31 kg/m3 |  |  |  |  |  |  |  |  | 
3 | CC#N [acetonitrile] + CCCCC(C)O |  |  |  |  |  |  |  |  |  |  |  |  | 1.3436 ± 0.0021 | 1.3411 ± 0.0021 | 1.339 ± 0.0021 | 1.3371 ± 0.0021 | 0.3542 ± 0.004 mPa·s | 782.04 ± 0.31 kg/m3 | 0.336 ± 0.004 mPa·s | 776.64 ± 0.31 kg/m3 | viscosity ([4]; 303.15 K, x1 = 1): 0.325 ± 0.004 mPa·s; mass density ([4]; 303.15 K, x1 = 1): 771.21 ± 0.31 kg/m3; viscosity ([4]; 308.15 K, x1 = 1): 0.308 ± 0.004 mPa·s; mass density ([4]; 308.15 K, x1 = 1): 765.75 ± 0.31 kg/m3
4 | CC#N [acetonitrile] + CCCCCC(C)O |  |  |  |  |  |  |  |  |  |  |  |  | 1.3436 ± 0.0021 | 1.3411 ± 0.0021 | 1.339 ± 0.0021 | 1.3371 ± 0.0021 | 0.3542 ± 0.036 mPa·s | 782.04 ± 0.31 kg/m3 | 0.3369 ± 0.034 mPa·s | 776.64 ± 0.31 kg/m3 | viscosity ([4]; 303.15 K, x1 = 1): 0.3254 ± 0.033 mPa·s; mass density ([4]; 303.15 K, x1 = 1): 771.21 ± 0.31 kg/m3; viscosity ([4]; 308.15 K, x1 = 1): 0.3082 ± 0.031 mPa·s; mass density ([4]; 308.15 K, x1 = 1): 765.75 ± 0.31 kg/m3
5 | CCCCCC(C)O (stereo unspecified) [2-heptanol] | 1.4206 ± 0.0021 | 1.4188 ± 0.0021 | 1.4165 ± 0.0021 | 1.4143 ± 0.0021 | 6.52 ± 0.072 mPa·s | 817.18 ± 0.3 kg/m3 | 5.33 ± 0.063 mPa·s | 813.33 ± 0.3 kg/m3 | 4.301 ± 0.052 mPa·s | 809.44 ± 0.31 kg/m3 | 3.528 ± 0.044 mPa·s | 805.5 ± 0.31 kg/m3 |  |  |  |  |  |  |  |  | 
6 | CCCC(C)O (stereo unspecified) [pentan-2-ol] | 1.406 ± 0.0021 | 1.4045 ± 0.0039 |  |  | 4.298 ± 0.05 mPa·s | 809.29 ± 0.31 kg/m3 | 3.478 ± 0.059 mPa·s | 805.24 ± 0.34 kg/m3 |  |  |  |  |  |  |  |  |  |  |  |  | 
7 | CC#N [acetonitrile] + CCC(C)O |  |  |  |  |  |  |  |  |  |  |  |  | 1.3436 ± 0.0021 | 1.3411 ± 0.0021 | 1.339 ± 0.0021 | 1.3371 ± 0.0021 | 0.3542 ± 0.004 mPa·s | 782.04 ± 0.31 kg/m3 | 0.3369 ± 0.0038 mPa·s | 776.64 ± 0.31 kg/m3 | viscosity ([4]; 303.15 K, x1 = 1): 0.3254 ± 0.0037 mPa·s; mass density ([4]; 303.15 K, x1 = 1): 771.21 ± 0.31 kg/m3; viscosity ([4]; 308.15 K, x1 = 1): 0.3082 ± 0.0036 mPa·s; mass density ([4]; 308.15 K, x1 = 1): 765.75 ± 0.31 kg/m3
8 | CCCCC(C)O (stereo unspecified) [2-hexanol] | 1.4135 ± 0.0021 | 1.4116 ± 0.0021 | 1.4093 ± 0.0021 | 1.4077 ± 0.0021 | 5.155 ± 0.061 mPa·s | 814.08 ± 0.3 kg/m3 | 4.1 ± 0.05 mPa·s | 810.14 ± 0.31 kg/m3 | 3.41 ± 0.04 mPa·s | 806.13 ± 0.31 kg/m3 | 2.819 ± 0.034 mPa·s | 802.06 ± 0.31 kg/m3 |  |  |  |  |  |  |  |  | 
9 | CC(C)O [propan-2-ol] + CC#N |  |  |  |  |  |  |  |  |  |  |  |  |  |  |  |  |  |  |  |  | refractive index ([3]; 293.15 K, x2 = 0): 1.3766 ± 0.0021; refractive index ([3]; 298.15 K, x2 = 0): 1.3745 ± 0.0021; refractive index ([3]; 303.15 K, x2 = 0): 1.3724 ± 0.0021; refractive index ([3]; 308.15 K, x2 = 0): 1.3703 ± 0.0021; viscosity ([4]; 293.15 K, x2 = 0): 2.351 ± 0.024 mPa·s; mass density ([4]; 293.15 K, x2 = 0): 785.19 ± 0.31 kg/m3; viscosity ([4]; 298.15 K, x2 = 0): 2.044 ± 0.022 mPa·s; mass density ([4]; 298.15 K, x2 = 0): 780.98 ± 0.31 kg/m3; viscosity ([4]; 303.15 K, x2 = 0): 1.758 ± 0.019 mPa·s; mass density ([4]; 303.15 K, x2 = 0): 776.71 ± 0.31 kg/m3; viscosity ([4]; 308.15 K, x2 = 0): 1.532 ± 0.017 mPa·s; mass density ([4]; 308.15 K, x2 = 0): 772.36 ± 0.31 kg/m3
10 | CC(C)O [propan-2-ol] | 1.3766 ± 0.0021 | 1.3745 ± 0.0021 | 1.3724 ± 0.0021 | 1.3703 ± 0.0021 | 2.351 ± 0.024 mPa·s | 785.19 ± 0.31 kg/m3 | 2.044 ± 0.022 mPa·s | 780.98 ± 0.31 kg/m3 | 1.758 ± 0.019 mPa·s | 776.71 ± 0.31 kg/m3 | 1.532 ± 0.017 mPa·s | 772.36 ± 0.31 kg/m3 |  |  |  |  |  |  |  |  | 
11 | CC#N [acetonitrile] + CCCC(C)O |  |  |  |  |  |  |  |  |  |  |  |  | 1.3436 ± 0.0021 | 1.3411 ± 0.0021 | 1.339 ± 0.0021 | 1.3371 ± 0.0021 | 0.3542 ± 0.071 mPa·s | 782.04 ± 0.31 kg/m3 | 0.3369 ± 0.067 mPa·s | 776.64 ± 0.31 kg/m3 | viscosity ([4]; 303.15 K, x1 = 1): 0.3254 ± 0.065 mPa·s; mass density ([4]; 303.15 K, x1 = 1): 771.21 ± 0.31 kg/m3; viscosity ([4]; 308.15 K, x1 = 1): 0.3082 ± 0.062 mPa·s; mass density ([4]; 308.15 K, x1 = 1): 765.75 ± 0.31 kg/m3
